According to PubChem BioAssay (NCI):
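Where inhibition never reached the appropriate level, the endpoint shown equals the highest concentration tested. Otherwise, values were interpolated linearly from a five-concentration, 48-hour dose response in 96-well plates. GI50 marks 50% less growth. Definition used: TGI = concentration required for complete inhibition of growth.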

Assays:
Assay in all cases: DTP human tumour cell line panel, 48 h
DMS 114 small cell lung = tested on: DMS 114 small cell lung
SNB-78 CNS = tested on: SNB-78 CNS
LXFL 529 NSCLC = tested on: LXFL 529 NSCLC
M19-MEL melanoma = tested on: M19-MEL melanoma
XF 498 CNS = tested on: XF 498 CNS
HOP-18 NSCLC = tested on: HOP-18 NSCLC
DMS 273 small cell lung = tested on: DMS 273 small cell lung

Row | Structure (SMILES) | TGI (DMS 114 small cell lung) [µM] | TGI (SNB-78 CNS) [µM] | TGI (LXFL 529 NSCLC) [µM] | TGI (M19-MEL melanoma) [µM] | TGI (XF 498 CNS) [µM] | TGI (HOP-18 NSCLC) [µM] | TGI (DMS 273 small cell lung) [µM] | GI50 (HOP-18 NSCLC) [nM] | GI50 (DMS 114 small cell lung) [nM] | GI50 (LXFL 529 NSCLC) [nM] | GI50 (M19-MEL melanoma) [nM] | GI50 (XF 498 CNS) [µM]
1 | Cc1ccc(SSCCCCCS(=O)O)cc1 | 45.2 | 82.1 | 28.5 | > 100 | 49.6 | – | – | – | – | – | – | –
2 | Nc1nc(=O)n(CC(O)CO)s1 (stereo not given) | > 100 | – | > 100 | > 100 | – | > 100 | > 100 | – | – | – | – | –
3 | O=C(NNC(=O)c1nsc2ccccc12)c1ccc(Cl)cc1 | – | 61.7 | 39.8 | 39.1 | – | 27.4 | 25.1 | – | – | – | – | –
4 | N#C[S-].[Ce+3].c1cnc2c(c1)ccc1cccnc12.c1cnc2c(c1)ccc1cccnc12.c1cnc2c(c1)ccc1cccnc12 | 4.52 | – | 24.6 | 3.31 | 8.95 | 7.53 | – | 1200 | 1640 | 2300 | 555 | 3.27
5 | O=S(O)c1cc(Cl)cc(Cl)c1OCc1ccccc1 | > 100 | > 100 | > 100 | > 100 | > 100 | – | – | – | – | – | – | –
